Experimental data from patent US20230382920A1, “SHMT Inhibitors” (The Trustees of Princeton University, priority 2020, published 2023).

What was measured:
[1] = Mouse liver microsome assay (metabolic stability); type: in vitro ADME; settings: mouse liver microsomes; for half-life at 2 µM: in vitro half-life; for microsomal CLint at 2 µM: in vitro intrinsic clearance, read-out: Relative Clint
Procedure: Example 6. Mouse Liver Microsome Assay
Metabolic stability of several compounds in mouse liver microsomes was tested. Briefly, a master solution was prepared according to Table 31.
Two separate experiments were performed: an experiment with cofactors and an experiment without cofactors. In the experiment with cofactors 40 μL of 10 mM NADPH and 40 μL of 20 mM UDPGA were added to the incubations. The final concentrations of microsomes, NADPH and UDPGA were 0.5 mg/mL, 1 mM and 2 mM, respectively. In the experiment without cofactors 10 μL of 20 mg/mL liver microsomes and 80 μL of ultra-pure H2O were added to the incubations. The final concentration of microsomes was 0.5 mg/mL. The mixture was pre-warmed at 37° C. for 5 minutes.
The reaction was started with the addition of 4 μL of 200 μM control compound or test compound solutions. Verapamil was used as positive control in this study. The final concentration of test compound was 2 μM and the final concentration of control compound was 1 μM. The incubation solution was incubated in water bath at 37° C.
Aliquots of 50 μL were taken from the reaction solution at 0.5, 5, 15, 30, 45 and 60 minutes. The reaction was stopped by the addition of five volumes of cold acetonitrile with IS (100 nM alprazolam, 200 nM caffeine and 100 nM tolbutamide). Samples were centrifuged at 3,220 g for 40 minutes. Aliquot of 100 μL of the supernatant was mixed with 100 μL of ultra-pure H2O and then subject to LC-MS/MS analysis.
All calculations were carried out using Microsoft Excel. Peak areas were determined from extracted ion chromatograms. The slope value, k, was determined by linear regression of the natural logarithm of the remaining percentage of the parent drug versus incubation time curve. The in vitro half-life (in vitro t½) was determined from the slope value:
Conversion of the in vitro t1/2(min) into the in vitro intrinsic clearance (in vitro CLint, in μL/min/mg protein) was done using the following equation (mean of duplicate determinations): […]

HCT116 [2] = assay: HCT116 growth inhibition assay; type: cell-based; settings: without formate
Procedure: (§1) Example 5. HCT116 Growth Inhibition and Formate Rescue Assays
(§2) 3,000 Cells were plated in each well of a 96-well plate with 80 μL of DMEM media supplemented with 10% dFBS, and incubated for 24 hours. Drugs with or without sodium formate (1 mM) were then added to each well to a final volume of 100 μL. Cell growth was measured as fluorescence intensity by resazurin after four days. In short, resazurin was added to each well to a final concentration of 10 μg·mL^−1. After incubation for one hour, fluorescence was measured by a Synergy HT plate reader (BioTek Instruments).

HCT116 [3] = assay: HCT116 formate rescue assay (with sodium formate 1 mM); type: cell-based; settings: HCT116 growth
Procedure: as §1, §2

half-life at 2 µM [1] [min]	microsomal CLint at 2 µM [1] [µL/min/mg]	IC50 (HCT116 [2])	IC50 (HCT116 [3]; Homo sapiens, HCT-116, 96 h) [µM]	IC50 (HCT116 [3]) [µM]	Structure (SMILES)
< 5	> 250	C″	> 5	–	Cc1n[nH]c2c1C(c1cc(C#C[C@H]3C[C@@H](C(C)(C)O)C3)cc(C(C)(C)O)c1)(C(C)C)C(C#N)=C(N)O2 (stereo partly drawn) [KDG-0261-100]
5 to 10	100 to 250	A″	< 0.1	–	Cc1n[nH]c2c1C(c1cc(C#CC3CCN(C(=O)OC(C)(C)C)CC3)cc(CO)c1)(C(C)C)C(C#N)=C(N)O2 (stereo not drawn) [KDG-0289]
5 to 10	100 to 250	A″	–	–	Cc1n[nH]c2c1C(c1cc(C#CC3CN(C(=O)OC(C)(C)C)C3)cc(CF)c1)(C(C)C)C(C#N)=C(N)O2 (stereo not drawn) [KDG-0345]
5 to 10	–	C″	–	–	Cc1n[nH]c2c1C(c1cc(C#C[C@H]3C[C@H](C(=O)N(C)C)C3)cc(CO)c1)(C(C)C)C(C#N)=C(N)O2 (stereo partly drawn) [KDG-0265]
≥ 20	≤ 70	B″	> 5	–	COC(=O)N1CC(F)(C#Cc2cc(CO)cc([C@@]3(C(C)C)C(C#N)=C(N)Oc4[nH]nc(C)c43)c2)C1 [KDG-0313]
< 5	> 250	B″	> 5	–	Cc1n[nH]c2c1C(c1cc(C#CC3CCCN3C(=O)OC(C)(C)C)cc(CO)c1)(C(C)C)C(C#N)=C(N)O2 (stereo not drawn) [KDG-0280]
10 to 20	70 to 100	D″	> 5	–	Cc1n[nH]c2c1C(c1cc(C#CC3CN(C(=O)NC(C)(C)C)C3)cc(CO)c1)(C(C)C)C(C#N)=C(N)O2 (stereo not drawn) [KDG-0412]
10 to 20	–	B″	–	–	Cc1n[nH]c2c1C(c1cc(C#N)cc(C#CC3CN(C(=O)OC(C)(C)C)C3)c1)(C(C)C)C(C#N)=C(N)O2 (stereo not drawn) [KDG-0543]
< 5	–	B″	–	–	Cc1n[nH]c2c1C(c1cc(C#C[C@H]3CC[C@@](C)(O)CC3)cc(CO)c1)(C(C)C)C(C#N)=C(N)O2 (stereo partly drawn) [KDG-0270]
5 to 10	100 to 250	B″	> 5	–	Cc1n[nH]c2c1C(c1cc(C#CC3(F)CCN(C(=O)OC(C)(C)C)CC3)cc(CO)c1)(C(C)C)C(C#N)=C(N)O2 (stereo not drawn) [KDG-0297]
–	–	D″	< 0.1	–	Cc1n[nH]c2c1[C@](c1cc(C#C[C@H]3C[C@@H](NC(=O)OC(C)(C)C)C3)cc(CO)c1)(C(C)C)C(C#N)=C(N)O2 [KDG-0388-Opk1, tert-butyl N-[(1s,3s)-3-(2-[3-[(4S)-6-amino-5-cyano-4-isopropyl-3-methyl-1H-pyrano[2,3-c]pyrazol-4-yl]-5-(hydroxymethyl)phenyl]ethynyl)cyclobutyl]carbamate]
≥ 20	≤ 70	C″	< 0.1	–	Cc1nnc(N2CC(C#Cc3cc(CO)cc(C4(C(C)C)C(C#N)=C(N)Oc5[nH]nc(C)c54)c3)C2)o1 (stereo not drawn) [KDG-0472]
≥ 20	≤ 70	A″	> 5	–	Cc1n[nH]c2c1[C@](c1cc(C#CC3(C(F)(F)F)CN(C(=O)OC(C)(C)C)C3)cc(CO)c1)(C(C)C)C(C#N)=C(N)O2 [KDG-0301]
< 5	> 250	A″	–	–	Cc1n[nH]c2c1C(c1cc(C#C[C@H]3C[C@H](C(C)(C)O)C3)cc(CO)c1)(C(C)C)C(C#N)=C(N)O2 (stereo partly drawn) [KDG-0258]
≥ 20	≤ 70	B″	< 0.1	–	Cc1n[nH]c2c1C(c1cc(C#CC34CC(NC(=O)OC(C)(C)C)(C3)C4)cc(CO)c1)(C(C)C)C(C#N)=C(N)O2 (stereo not drawn) [KDG-0502, tert-butyl N-[3-[2-(3-[6-amino-5-cyano-4-isopropyl-3-methyl-1H-pyrano[2,3-c]pyrazol-4-yl]-5-(hydroxymethyl)phenyl)ethynyl]bicyclo[1.1.1]pentan-1-yl]carbamate]
–	–	A″	–	> 5	Cc1n[nH]c2c1C(c1cc(C#C[C@H]3C[C@@H](NC(=O)OC(C)(C)C)C3)cc(CO)c1)(C(C)C)C(C#N)=C(N)O2 (stereo partly drawn) [KDG-0388-0pk2, tert-butyl N-[(1s,3s)-3-(2-[3-[(4R)-6-amino-5-cyano-4-isopropyl-3-methyl-1H-pyrano[2,3-c]pyrazol-4-yl]-5-(hydroxymethyl)phenyl]ethynyl)cyclobutyl]carbamate]
< 5	–	A″	–	–	Cc1n[nH]c2c1C(c1cc(C#C[C@H]3CC[C@@H](NC(=O)OC(C)(C)C)C3)cc(CO)c1)(C(C)C)C(C#N)=C(N)O2 (stereo partly drawn) [KDG-0505]
< 5	–	C″	–	–	Cc1n[nH]c2c1C(c1cc(C#C[C@H]3C[C@H](COC(N)=O)C3)cc(C(C)(C)O)c1)(C(C)C)C(C#N)=C(N)O2 (stereo partly drawn) [KDG-0262]
5 to 10	100 to 250	C″	< 0.1	–	Cc1n[nH]c2c1C(c1cc(C#CC3(C)CCN(C(=O)OC(C)(C)C)CC3)cc(CO)c1)(C(C)C)C(C#N)=C(N)O2 (stereo not drawn) [KDG-0296]
10 to 20	70 to 100	B″	< 0.1	–	[2H]C([2H])(O)c1cc(C#CC2CN(C(=O)OC(C)(C)C)C2)cc(C2(C(C)C)C(C#N)=C(N)Oc3[nH]nc(C)c32)c1 (stereo not drawn) [KDG-0413]
5 to 10	70 to 100	C″	> 5	–	Cc1nnc(N2CCC(C#Cc3cc(CO)cc(C4(C(C)C)C(C#N)=C(N)Oc5[nH]nc(C)c54)c3)CC2)o1 (stereo not drawn) [KDG-0478]
10 to 20	70 to 100	A″	< 0.1	–	Cc1c[nH]c2c1C(c1cc(CO)cc(-c3ccc(C4CN(C(=O)OC(C)(C)C)C4)cc3)c1)(C(C)C)C(C#N)=C(N)O2 (stereo not drawn) [KDG-0453]
< 5	> 250	A″	< 0.1	–	Cc1n[nH]c2c1C(c1cc(C#C[C@H]3CC[C@@H](NC(=O)OC(C)(C)C)CC3)cc(CO)c1)(C(C)C)C(C#N)=C(N)O2 (stereo partly drawn) [KDG-0321]
10 to 20	≤ 70	C″	> 5	–	Cc1n[nH]c2c1C(c1cc(C#C[C@@H]3C[C@H]3CO)cc(CO)c1)(C(C)C)C(C#N)=C(N)O2 (stereo partly drawn) [KDG-0136]
5 to 10	–	B″	–	–	Cc1n[nH]c2c1C(c1cc(C#C[C@H]3CC[C@H](NC(=O)OC(C)(C)C)C3)cc(CO)c1)(C(C)C)C(C#N)=C(N)O2 (stereo partly drawn) [KDG-0506]
< 5	–	B″	–	–	Cc1n[nH]c2c1C(c1cc(C#C[C@@H]3CC[C@@H]3CNC(=O)OC(C)(C)C)cc(CO)c1)(C(C)C)C(C#N)=C(N)O2 (stereo partly drawn) [KDG-0490]
